Experimental data reported in patent US6333338A, “Bispiperidines as antithrombotic agents” (Laboratoire L. Lafon, priority 1998, dated 2001).
Structures can show the parent of a compound that is named as a salt. Where two headings read alike, the source gives them in different places.

Columns and labels:
guinea pig platelets [1] = test: In vitro inhibition of collagen-induced platelet aggregation, guinea pig platelets (PRP); assay type: cell-based, guinea pig (male Dunkin-Hartley); details: Cavia porcellus, Platelet, 0.05 h, collagen 1 μg/ml, 3 minutes of contact at 37° C.
Procedure, shortened: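 Citrated PRP from male Dunkin-Hartley guinea pigs, adjusted to 200,000–400,000 platelets/mm^3, with PPP as reference. Aggregation induced by collagen (1 μg/ml) and followed by optical aggregometry; inhibition measured after 3 min compound contact at 37° C with stirring.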

human platelets = test: In vitro inhibition of collagen-induced platelet aggregation, human platelets (PRP); assay type: cell-based; details: 0.05 h, collagen 5 μg/ml, 3 minutes of contact at 37° C., read-out: IC50 (M) in vitro, Man
Description: A study of the inhibitory activity of the compounds of formula I on platelet aggregation was carried out in vitro, i.e. by direct contact of solutions of variable concentrations of the compounds with platelets freshly separated from a sample of total blood, taken under standardized conditions, from laboratory animals (guinea pigs) and from healthy human subjects who have not received any substances or drugs that might interfere with blood clotting. The anti-platelet-aggregating activity was also studied ex vivo/vitro, i.e. after administration of the substances claimed to guinea pigs to measure the intensity and duration of the anti-aggregating action induced by the fraction of the test product absorbed and circulating in the blood.
Venous blood is taken from a group of ten healthy human subjects of the same age, by puncture into a vein of the fold of the elbow and is collected in a glass tube containing aqueous 0.129 M sodium citrate solution (1 volume of citrate solution per 9 volumes of blood). Each tube is then centrifuged a first time at 20° C. and 100 g for 15 minutes in order to obtain the platelet-rich plasma (PRP); after removing this PRP, the tube is again centrifuged at 2000 g for 15 minutes in order this time to remove the platelet-poor plasma (PPP).
For each identified sample of PRP, the platelets are counted using a Coulter ZM counter. Each sample is then used to study the variation in inhibition of the platelet aggregation triggered by the addition of a Chromo-par Reagent collagen glucose solution from Coultronics (used at a concentration of 5 μg/ml) as a function of the addition of increasing concentrations of each compound in a range covering the interval 10^-8 M→10^-5 M, (example of concentrations: 10^-8 M, […], 6×10^-6 M, 4×10^-6 M, 2×10^-6 M, 10^-6 M, […], 10^-5 M). Beforehand, for each compound, an aqueous 10^-3 M solution is prepared. A control test intended to check the possible effect of the solvents (reference value) on the platelet aggregation is introduced into each measurement series, and is measured after 3 minutes of contact at 37° C. with agitation.
From the percentages of inhibition of the platelet aggregation measured for each concentration of each compound, the 50% inhibitory concentration (IC50) is calculated.

guinea pig platelets [2] = test: Ex vivo/vitro inhibition of platelet aggregation after administration via the gastric route in guinea pigs; design: species or system guinea pig (Dunkin-Hartley); details: Cavia porcellus, Platelet, 10 mg/kg, fasted guinea pigs
Procedure, shortened: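 Compounds dosed by the gastric route to Dunkin-Hartley guinea pigs, with random allocation of treatments. Blood then drawn and platelets freshly separated and tested as in the in vitro aggregation study. Inhibition measured for intensity and duration of action; IC50 derived from per-concentration inhibition.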

[3] = 1 h before blood sampling, read-out: % of g.r. inhibition guinea pig ex vivo, d = 10 mg/kg, 1 h
[4] = 2 h before blood sampling, read-out: % of g.r. inhibition guinea pig ex vivo, d = 10 mg/kg, 2 h

SMILES	IC50 (guinea pig platelets [1])	IC50 (human platelets)	inhibition at 10 mg/kg (guinea pig platelets [2]; [3])	inhibition at 10 mg/kg (guinea pig platelets [2]; [4])
O=C(CNC(=O)C(CCC1CCNCC1)CCC1CCNCC1)NCC(NS(=O)(=O)c1ccc(Cl)cc1)C(=O)O (centres unmarked) [Example 34, 2-([(4-Chlorophenyl)sulphonyl]amino)-3-{[2-({4-(4-piperidyl)-2-[2-(4-piperidyl)ethyl]butanoyl}amino)acetyl]amino}propanoic Acid Dihydrochloride]	500 nM	8.9e-07 M	-19%	-8%
O=C(CNC(=O)C(CCC1CCNCC1)CCC1CCNCC1)NCC(NS(=O)(=O)c1ccc(F)cc1)C(=O)O (centres unmarked) [Example 35, 2-{[(4-Fluorophenyl)sulphonyl]amino}-3-{[2-({4-(4-piperidyl)-2-[2-(4-piperidyl)ethyl]butanoyl}amino)acetyl]amino}propanoic Acid Dihydrochloride]	18 nM	1.3e-08 M	-5%	0%
COc1ccc2cc(S(=O)(=O)N[C@@H](CNC(=O)CNC(=O)C(CCC3CCNCC3)CCC3CCNCC3)C(=O)O)ccc2c1 [Example 36, (2S)-2-{[(6-Methoxy-2-naphthyl)sulphonyl]amino}-3-{[2-({4-(4-piperidyl)-2-[2-(4-piperidyl)ethyl]butanoyl}amino)acetyl]amino}propanoic Acid Dihydrochloride]	41 nM	7.2e-08 M	-63%	-69%
Cc1cc(C)c(S(=O)(=O)NC(CNC(=O)CNC(=O)C(CCC2CCNCC2)CCC2CCNCC2)C(=O)O)c(C)c1 (centres unmarked) [Example 37, 2-[(Mesitylsulphonyl)amino]-3-{[2-({4-(4-piperidyl)-2-[2-(4-piperidyl)ethyl]butanoyl}amino)acetyl]amino}propanoic Acid Dihydrochloride]	140 nM	1.3e-07 M	-9%	-16%
CN(C)c1cccc2c(S(=O)(=O)NC(CNC(=O)CNC(=O)C(CCC3CCNCC3)CCC3CCNCC3)C(=O)O)cccc12 (centres unmarked) [Example 49, 2-({[5-(Dimethylamino)-1-naphthyl)sulphonyl}amino)-3-{[2-({4-(4-piperidyl)-2-[2-(4-piperidyl)ethyl]butanoyl}amino)acetyl]amino}propanoic Acid Trihydrochloride]	49 nM	5.6e-08 M	-69%	-68%
COc1ccc(S(=O)(=O)N[C@@H](CNC(=O)CNC(=O)C(CCC2CCNCC2)CCC2CCNCC2)C(=O)O)c2ccccc12 [Example 52, 2-([(4-Methoxy-1-naphthyl)sulphonyl]amino)-3-{[2-({4-(4-piperidyl)-2-[2-(4-piperidyl)ethyl]butanoyl}amino)acetyl]amino}propanoic Acid Dihydrochloride]	35 nM	9.3e-08 M	-58%	-30%
COc1cc2ccc(S(=O)(=O)N[C@@H](CNC(=O)CNC(=O)C(CCC3CCNCC3)CCC3CCNCC3)C(=O)O)cc2cc1OC [Example 53, 2-{[(6,7-Dimethoxy-2-naphthyl)sulphonyl]amino}-3-{[2-({4-(4-piperidyl)-2-[2-(4-piperidyl)ethyl]butanoyl}amino)acetyl]amino}propanoic Acid Dihydrochloride]	37 nM	7.3e-08 M	-73%	-9%
O=C(CNC(=O)C(CCC1CCNCC1)CCC1CCNCC1)NC[C@H](NS(=O)(=O)c1cc2ccccc2s1)C(=O)O [Example 59, 2-[(1-Benzothiophen-2-ylsulphonyl)amino]-3-{[2-({4-(4-piperidyl)-2-[2-(4-piperidyl)ethyl]butanoyl}amino)acetyl]amino}propanoic Acid Dihydrochloride]	66 nM	1.5e-07 M	-66%	-34%
O=C(CNC(=O)C(CCC1CCNCC1)CCC1CCNCC1)NCC(NS(=O)(=O)c1ccc(Cl)c2ccccc12)C(=O)O (centres unmarked) [Example 63, 2-{[(4-Chloro-1-naphthyl)sulphonyl]amino}-3-{[2-({4-(4-piperidyl)-2-[2-(4-piperidyl)ethyl]butanoyl}amino)acetyl]amino}propanoic Acid Dihydrochloride]	53 nM	1e-06 M	-69%	-50%
O=C(CNC(=O)C(CCC1CCNCC1)CCC1CCNCC1)NCC(NS(=O)(=O)c1ccc(-c2ccccc2)s1)C(=O)O (centres unmarked) [Example 71, 2-{[(5-Phenyl-2-thienyl))sulphonyl]amino}-3-{[2-({4-(4-piperidyl)-2-[2-(4-piperidyl)ethyl]butanoyl}amino)acetyl]amino}propanoic Acid Dihydrochloride]	63 nM	1.9e-07 M	-72%	-70%
O=C(CCNC(=O)C(CCC1CCNCC1)CCC1CCNCC1)NCC(NS(=O)(=O)c1ccc2ccccc2c1)C(=O)O (centres unmarked) [Example 78, 2-[(2-Naphthylsulphonyl)amino]-3-{[3-({4-(4-piperidyl)-2-[2-(4-piperidyl)ethyl]butanoyl}amino)propanoyl]amino}propanoic Acid Dihydrochloride]	46 nM	1e-07 M	-65%	-73%
